How the values were obtained:
Surinam grass = assay: Test C pre-/postemergence herbicide test; type: in vivo, Urochloa decumbens; conditions: for Surinam Grass plant response rating: Preemergence, 500 g ai/ha
Procedure, shortened: (§1)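 Preemergence: seeds planted and treated with compound in non-phytotoxic solvent with surfactant; postemergence: plants at 2 to 18 cm (1- to 4-leaf stage) sprayed likewise. Kept in greenhouse 12 to 14 days, then visually rated against controls, 0 (no effect) to 100 (complete control).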

pigweed = assay: Test C pre-/postemergence herbicide test; type: in vivo, Amaranthus retroflexus; conditions: for Pigweed plant response rating: Preemergence, 500 g ai/ha
Procedure, shortened: as §1

velvetleaf [1] = assay: Test C pre-/postemergence herbicide test; type: in vivo, Abutilon theophrasti; conditions: for Velvetleaf plant response rating: Preemergence, 500 g ai/ha, scale 0 to 100, 0 no effect, 100 complete control
Procedure, shortened: as §1

morningglory = assay: Test A pre-/postemergence herbicide test; type: in vivo, Ipomoea spp.
Procedure, shortened: (§2)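 Sandy loam soil given preemergence directed spray; plants at 2 to 10 cm, one- to two-leaf stage, sprayed to runoff postemergence, compounds in non-phytotoxic solvent with surfactant. Injury rated visually versus untreated controls after about ten greenhouse days, 0 (no effect) to 100 (complete control); dash means not tested.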

velvetleaf [2] = assay: Test A pre-/postemergence herbicide test; type: in vivo, Abutilon theophrasti
Procedure, shortened: as §2

giant foxtail = assay: Test A pre-/postemergence herbicide test; type: in vivo, Setaria faberi
Procedure, shortened: as §2

corn = assay: Test C pre-/postemergence herbicide test; type: in vivo, Zea mays; conditions: for Corn plant response rating: Preemergence, 500 g ai/ha
Procedure, shortened: as §1

kochia = assay: Test C pre-/postemergence herbicide test; type: in vivo, Kochia scoparia; conditions: for Kochia plant response rating: Preemergence, 500 g ai/ha
Procedure, shortened: as §1

lambsquarters = assay: Test C pre-/postemergence herbicide test; type: in vivo, Chenopodium album; conditions: for Lambsquarters plant response rating: Preemergence, 500 g ai/ha
Procedure, shortened: as §1

[3] = 125 g ai/ha, scale 0 (no effect) to 100 (complete control), visual, 12 to 14 days, preemergence
[4] = 250 g ai/ha, scale 0 to 100 (0 no effect, 100 complete control), visual, 12 to 14 days, preemergence
[5] = Postemergence, 250 g ai/ha, scale 0 to 100, 0 no effect, 100 complete control
[6] = postemergence, 62 g ai/ha, scale 0 to 100
[7] = Postemergence, 500 g ai/ha, 0 to 100 scale, 0 no effect, 100 complete control
[8] = Postemergence, 2000 g ai/ha, 0 to 100 scale, 0 no effect, 100 complete control
[9] = Preemergence, 500 g ai/ha, visual rating, 0 to 100 scale (0 no effect, 100 complete control)
[10] = Preemergence, 2000 g ai/ha, 0 to 100 scale, 0 no effect, 100 complete control
[11] = Postemergence, 125 g ai/ha, scale 0 to 100, 0 no effect, 100 complete control
[12] = 62 g ai/ha, preemergence, scale 0 to 100
[13] = 250 g ai/ha, scale 0-100, preemergence
[14] = scale 0 to 100, 0 no effect, 100 complete control
[15] = Preemergence, 2000 g ai/ha, visual rating, 0 to 100 scale (0 no effect, 100 complete control)
[16] = preemergence, 500 g ai/ha, visual injury, 0 to 100 scale (0 no effect, 100 complete control)

With `CCn1nc(C(C)(C)C)cc1C(=O)Nc1cccc(C(=O)NC2CC2)c1` [Compound 44] the “Plant response rating (0 = no effect, 100 = complete control), Surinam Grass” value (Surinam grass; 62 g ai/ha, preemergence) was 10, the “Plant response rating, Surinam Grass” value (Surinam grass; [3]) was 10 and the “Plant response rating, Surinam Grass” value (Surinam grass; [4]) was 10. The “Plant response rating, Surinam Grass” value (Surinam grass; [5]) was 40, the “Plant response rating, Surinam Grass” value (Surinam grass; [6]) was 40 and the “Plant response rating (0 = no effect, 100 = complete control), Pigweed” value (pigweed; 62 g ai/ha, preemergence) was 10. For the same compound, the “Plant response rating, Pigweed” value (pigweed; [3]) was 70, the “Plant response rating, Pigweed” value (pigweed; [4]) was 90 and the “Plant response rating, Pigweed” value (pigweed; [5]) was 100. The “Plant response rating, Pigweed” value (pigweed; [6]) was 100, the “Plant response rating (0 = no effect, 100 = complete control), Velvetleaf” value (velvetleaf [1]; 62 g ai/ha, preemergence) was 70 and the “Plant response rating, Velvetleaf” value (velvetleaf [1]; [3]) was 70. The “Plant response rating, Velvetleaf” value (velvetleaf [1]; [4]) was 70, the “Plant response rating, Velvetleaf” value (velvetleaf [1]; [6]) was 60 and the “Plant response rating, Morningglory” value (morningglory; [7]) was 15. The “Plant response rating, Morningglory” value (morningglory; [8]) was 45, the “Morningglory plant response rating” value (morningglory; [9]) was 10 and the “Morningglory plant response rating” value (morningglory; [10]) was 30. The “Plant response rating, Velvetleaf” value (velvetleaf [2]; [8]) was 65, the “Velvetleaf plant response rating” value (velvetleaf [2]; [9]) was 20 and the “Velvetleaf plant response rating” value (velvetleaf [2]; [10]) was 35. For the same compound, the “Plant response rating, Foxtail, Giant” value (giant foxtail; [7]) was 50, the “Plant response rating, Foxtail, Giant” value (giant foxtail; [8]) was 90 and the “Foxtail, Giant plant response rating” value (giant foxtail; [9]) was 65. For the same compound, the “Foxtail, Giant plant response rating” value (giant foxtail; [10]) was 100, the “Plant response rating (0 = no effect, 100 = complete control), Corn” value (corn; 62 g ai/ha, preemergence) was 0 and the “Plant response rating, Corn” value (corn; [3]) was 0. The “Plant response rating, Corn” value (corn; [4]) was 0, the “Plant response rating, Corn” value (corn; [11]) was 70 and the “Plant response rating, Corn” value (corn; [5]) was 80. The “Plant response rating, Corn” value (corn; [6]) was 70, the “Plant response rating (0 = no effect, 100 = complete control), Kochia” value (kochia; 62 g ai/ha, preemergence) was 0 and the “Plant response rating, Kochia” value (kochia; [3]) was 10. For the same compound, the “Plant response rating, Kochia” value (kochia; [4]) was 10, the “Plant response rating, Kochia” value (kochia; [11]) was 90 and the “Plant response rating, Kochia” value (kochia; [5]) was 90. The “Plant response rating, Kochia” value (kochia; [6]) was 90, the “Plant response rating (0 = no effect, 100 = complete control), Lambsquarters” value (lambsquarters; 62 g ai/ha, preemergence) was 90 and the “Plant response rating, Lambsquarters” value (lambsquarters; [3]) was 100. The “Plant response rating, Lambsquarters” value (lambsquarters; [4]) was 100, the “Plant response rating, Lambsquarters” value (lambsquarters; [5]) was 90 and the “Plant response rating, Lambsquarters” value (lambsquarters; [6]) was 90.
For `CCN(CC)C(=O)c1cccc(NC(=O)c2sc(C(C)(C)C)nc2C)c1` [Compound 199], the “Plant response rating, Surinam Grass” value (Surinam grass; [12]) was 0, the “Plant response rating, Surinam Grass” value (Surinam grass; [3]) was 0 and the “Plant response rating, Surinam Grass” value (Surinam grass; [13]) was 30. The “Surinam Grass plant response rating” value (Surinam grass; [14]) was 75, the “Plant response rating, Pigweed” value (pigweed; [12]) was 100 and the “Plant response rating, Pigweed” value (pigweed; [3]) was 100. For the same compound, the “Plant response rating, Pigweed” value (pigweed; [13]) was 100, the “Pigweed plant response rating” value (pigweed; [14]) was 100 and the “Plant response rating, Velvetleaf” value (velvetleaf [1]; [12]) was 10. The “Plant response rating, Velvetleaf” value (velvetleaf [1]; [3]) was 70, the “Plant response rating, Velvetleaf” value (velvetleaf [1]; [13]) was 85 and the “Velvetleaf plant response rating” value (velvetleaf [1]) was 85. For the same compound, the “Morningglory plant response rating” value (morningglory; [7]) was 45, the “Plant response rating, Morningglory” value (morningglory; [8]) was 70 and the “Morningglory plant response rating” value (morningglory; [15]) was 55. The “Morningglory plant response rating” value (morningglory; [16]) was 15, the “Velvetleaf plant response rating” value (velvetleaf [2]; [7]) was 30 and the “Plant response rating, Velvetleaf” value (velvetleaf [2]; [8]) was 35. For the same compound, the “Velvetleaf plant response rating” value (velvetleaf [2]; [15]) was 90, the “Velvetleaf plant response rating” value (velvetleaf [2]; [16]) was 35 and the “Foxtail, Giant plant response rating” value (giant foxtail; [7]) was 25. The “Plant response rating, Foxtail, Giant” value (giant foxtail; [8]) was 65, the “Foxtail, Giant plant response rating” value (giant foxtail; [15]) was 100 and the “Foxtail, Giant plant response rating” value (giant foxtail; [16]) was 80. The “Plant response rating, Corn” value (corn; [12]) was 0, the “Plant response rating, Corn” value (corn; [3]) was 0 and the “Plant response rating, Corn” value (corn; [13]) was 0. For the same compound, the “Corn plant response rating” value (corn; [14]) was 0, the “Plant response rating, Kochia” value (kochia; [12]) was 80 and the “Plant response rating, Kochia” value (kochia; [3]) was 85. For the same compound, the “Plant response rating, Kochia” value (kochia; [13]) was 90, the “Kochia plant response rating” value (kochia; [14]) was 90 and the “Plant response rating, Lambsquarters” value (lambsquarters; [12]) was 80. The “Plant response rating, Lambsquarters” value (lambsquarters; [3]) was 95, the “Plant response rating, Lambsquarters” value (lambsquarters; [13]) was 100 and the “Lambsquarters plant response rating” value (lambsquarters; [14]) was 100.
`CCn1nc(C(C)(C)C)cc1C(=O)Nc1cc(C(=O)N(C)C)ccn1` [Compound 156, 2-[[[3-(1,1-dimethylethyl)-1-ethyl-1H-pyrazol-5-yl]carbonyl]amino]-N,N-dimethyl-4-pyridinecarboxamide] was tested, and the “Surinam Grass plant response rating” value (Surinam grass; [14]) was 95, the pest or weed control at 62 g/ha (Surinam grass; Urochloa decumbens, pre-emergence, 312 h, 62 g ai/ha, preemergence, scale 0 to 100, read-out: Plant response rating, Surinam Grass) was 75% and the pest or weed control at 125 g/ha (Surinam grass; Urochloa decumbens, pre-emergence, 312 h, 125 g ai/ha, scale 0 (no effect) to 100 (complete control), visual, 12 to 14 days, read-out: Plant response rating, Surinam Grass) was 88%. The pest or weed control at 62 g/ha (pigweed; Amaranthus retroflexus, pre-emergence, 62 g ai/ha, preemergence, scale 0 to 100, read-out: Plant response rating, Pigweed) was 95%, the pest or weed control at 125 g/ha (pigweed; Amaranthus retroflexus, pre-emergence, 125 g ai/ha, scale 0 (no effect) to 100 (complete control), visual, 12 to 14 days, read-out: Plant response rating, Pigweed) was 98% and the “Pigweed plant response rating” value (pigweed; [14]) was 100. The pest or weed control at 62 g/ha (velvetleaf [1]; Abutilon theophrasti, pre-emergence, 62 g ai/ha, preemergence, scale 0 to 100, read-out: Plant response rating, Velvetleaf) was 43%, the pest or weed control at 125 g/ha (velvetleaf [1]; Abutilon theophrasti, pre-emergence, 125 g ai/ha, scale 0 (no effect) to 100 (complete control), visual, 12 to 14 days, read-out: Plant response rating, Velvetleaf) was 63% and the “Velvetleaf plant response rating” value (velvetleaf [1]) was 100. For the same compound, the “Corn plant response rating” value (corn; [14]) was 50, the Corn plant response rating (crop injury, 0 = no effect, 100 = complete kill) at 62 g/ha (corn; Zea mays, pre-emergence, 312 h, 62 g ai/ha, preemergence, scale 0 to 100) was 15% and the Corn plant response rating (crop injury, 0 = no effect, 100 = complete kill) at 125 g/ha (corn; Zea mays, pre-emergence, 312 h, 125 g ai/ha, scale 0 (no effect) to 100 (complete control), visual, 12 to 14 days) was 38%. The Corn plant response rating (crop injury, 0 = no effect, 100 = complete kill) at 250 g/ha (corn; Zea mays, pre-emergence, 312 h, 250 g ai/ha, scale 0 to 100 (0 no effect, 100 complete control), visual, 12 to 14 days) was 40%, the pest or weed control at 62 g/ha (kochia; Bassia scoparia, pre-emergence, 62 g ai/ha, preemergence, scale 0 to 100, read-out: Plant response rating, Kochia) was 95% and the pest or weed control at 125 g/ha (kochia; Bassia scoparia, pre-emergence, 125 g ai/ha, scale 0 (no effect) to 100 (complete control), visual, 12 to 14 days, read-out: Plant response rating, Kochia) was 95%. For the same compound, the “Kochia plant response rating” value (kochia; [14]) was 100, the pest or weed control at 62 g/ha (lambsquarters; Chenopodium album, pre-emergence, 62 g ai/ha, preemergence, scale 0 to 100, read-out: Plant response rating, Lambsquarters) was 100% and the pest or weed control at 125 g/ha (lambsquarters; Chenopodium album, pre-emergence, 125 g ai/ha, scale 0 (no effect) to 100 (complete control), visual, 12 to 14 days, read-out: Plant response rating, Lambsquarters) was 100%. For the same compound, the “Lambsquarters plant response rating” value (lambsquarters; [14]) was 100.

Reference: US20060069132A1, “Azolecarboxamide herbicides” (priority 2004, published 2006)
